In patent publication US12139470B2, “Trioxolane agents” (The Regents of the University of California, priority 2017, dated 2024):
Values after ≈ are worked out from the molar mass of the structure shown. Read-outs that look alike come from different tables or passages of the source. Values belong to the compound of their own block, whether it stands above or below them.

What was measured:
[1] = test system: Plasmodium falciparum: strain W2; experiment: Plasmodium falciparum growth inhibition assay (EC50 determinations); format: cell-based; details: Plasmodium falciparum, W2; against P. falciparum, in vitro; read-out: potency against P. falciparum
Protocol: The growth inhibition assay for P. falciparum was conducted as described previously^29 with minor modifications. […] Following 48 hours of incubation, the cells were fixed by adding 0.1 ml of 2% formaldehyde in phosphate buffered saline, pH=7.4 (PBS). […] Parasitemias were determined from dot plots (forward scatter vs. fluorescence) using [sequence] software (Becton Dickinson). EC50 values for growth inhibition were determined from plots of percentage control parasitemia over inhibitor concentration using GraphPad Prism software.

[2] = Dissolution in oral gavage formulation; format: physicochemical; details: 10% DMSO, 40% of a 20% solution of 2-hydroxypropyl-cyclodextrin in water, 50% PEG400; 80, 40 and 30 mg/kg doses; sonication
Protocol: As such, we chose to screen the two regioisomers in a head-to-head study against P. berghei infected mice. In order to carry out this experiment, both compounds first needed to be formulated in a manner that would allow for treatment of the mice by oral gavage. […] Returning to the 3′ regioisomer, the actual doses were then successfully prepared according to the following instructions. The necessary amount of DMSO solution was removed from the vial and added to a new vial. For the 80 mg/kg dose, no additional DMSO was needed to be added to the vial. […] Upon adding the aqueous portion to the 80, 40, and 30 mg/kg doses, a white solution formed (resembled more of an emulsion then a heterogeneous solution). The vials were then placed in a bath sonicator in an attempt to redissolve the material. […] However, even after storing the material at −20° C., the compound was not observed to crash out of the formulation again. For the second attempt at preparing the necessary formulation for the actual OZ439, the material was partitioned such that when the dilutions were performed, the highest concentration that would be prepared from the stock solution would be the 10 mg/kg doses. As such, the 80, 40, and 30 mg/kg doses were all prepared directly by partitioning the requisite amounts into separate vials and then adding the necessary amounts of the formulation to reach the desired concentration. […]

[3] = Dissolution in DMSO (stock solution); format: physicochemical
Protocol: The way in which the formulations were prepared involved preparing a stock solution of the compound in DMSO, and then performing dilutions from this stock such that the requisite final concentration was obtained after the addition of all the necessary formulation components. Practically speaking, this was accomplished by partitioning a portion of each compound into separate 4 mL vials, and then placing these vials on the lyophilizer to ensure the compounds were completely dry. This led to a vial containing 49.5 mg of the 3′ OZ439 regioisomer, while the other held 51.0 mg of OZ439. […] This entailed adding 309.4 μL of DMSO to the vial with the 3′ OZ439 regioisomer, whereas 318.8 μL of DMSO was added to the vial containing actual OZ439. In the past, an issue has not arisen when doing this. However, this time, a major problem presented itself. The problem was not with the newly developed 3′ regioisomer of OZ439, but with OZ439 itself. After addition of DMSO to the vials, the majority of the 3′ regioisomer dissolved, whereas none of the actual OZ439 did. In an attempt to assist with dissolving the material, the two vials were then placed a water bath set to 42° C. […] The vial was then placed in a bath sonicator for 60 minutes, ultimately to no avail as […] dissolution of the material. […] At this point, the vial was then placed on the Hi-Vac to remove the DMSO. Once dry, the material was partitioned again in an attempt to get the material to dissolve at a lower concentration.
For the second attempt at preparing the necessary formulation for the actual OZ439, the material was partitioned such that when the dilutions were performed, the highest concentration that would be prepared from the stock solution would be the 10 mg/kg doses. As such, the 80, 40, and 30 mg/kg doses were all prepared directly by partitioning the requisite amounts into separate vials and then adding the necessary amounts of the formulation to reach the desired concentration. For the vial that was employed in aliquoting from to prepare the other concentrations, it contained 15.5 mg of OZ439. DMSO (775 μL) was then added to this vial, to yield a final concentration of 20 mg/mL (55 mM). […] Only after allowing the vial to warm in a 55° C. water bath for 30 minutes did the material finally dissolve. At this point, the material was brought back to the bench to aliquot the material en route to preparing the remaining doses. However, upon being removed from the bath, the compound began to crash out as it cooled to room temperature. For this reason, the vial was heated with a heat gun for about 10-15 seconds to get the material to dissolve fully once again. […]

[4] = test system: clinical K13-mutant strain; details: pulsed exposure; cited from earlier work
[5] = human, in vivo; cited from earlier work
[6] = Kinetic solubility in PBS; format: physicochemical; details: kinetic solubility in PBS (pH = 7.4), final DMSO 5%, average of three determinations
[7] = test system: K13 revertant strain bearing the wild type K13 allele; details: pulsed exposure; cited from earlier work
[8] = Mouse liver microsome assay (half-life, intrinsic clearance)
Description: A second hypothesis regarding trans-R^A substitution (R^A in Scheme 1) was that the resulting de-symmetrized molecular topology would impact the vivo PK/PD properties of these analogs. […] To explore possible metabolic differences, we evaluated selected analogs with mouse liver microsomes and derived intrinsic clearance (CLint) values (Table 1).

[9] = test system: Plasmodium berghei; experiment: Plasmodium berghei mouse malaria model (Peters test, cures at 30 days); format: in vivo; details: po, 720 h, oral gavage, read-out: Mice Cured (%)
Description: The suppressive 4-day “Peters test” ^27 involving P. berghei infected mice provides a convenient and cost effective means to assess the overall in vivo performance of pre-clinical antimalarials. […] Mice were followed for 30 days and judged to have been cured of the infection based on the lack of detectable parasitemia at the end of the study.
Female Swiss Webster Mice (average of 20 g body weight) were infected intraperitoneally with 10^6 Plasmodium berghei-infected erythrocytes collected from a previously infected mouse. […] There were five mice in each test arm. Infections were monitored by daily microscopic evaluation of Giemsa-stained blood smears starting on day seven. Parasitemia were determined by counting the number of infected and uninfected erythrocytes. Body weight was measured over the course of the treatment. […] Animal survival and morbidity were closely monitored for up to 30 days post-infection when the experiment was terminated. In some cases survival is expressed as a PD100 or PD50, the dose that produces respectively 100% or 50% cures in treated animals at 30 days post infection.

[10] = test system: PC-3 xenograft; experiment: PET imaging of PC-3 xenograft mouse; format: in vivo; details: tail vein injection
Description: Compounds 1 and specific examples B9[^18F] and B20[^18F] above are PET imaging reagent with applications in cancer, infectious disease, and inflammation. […] Additional, more quantitative, biodistribution data (e.g., biodistribution data for probes B9 and B20) is included in FIGS. 5-8. […] The imaging reagents above provides a new paradigm for imaging diverse cancer types based on metabolic changes in iron metabolism in tumors and other aspects of tumor biology (hypoxia, necrosis, macrophage infiltration). Imaging primary tumors and metastases and other therapeutic conditions involving aberrant production of labile Fe(II) such as inflammation and infection.

[11] = 160 mg/mL (341 mM) in DMSO, water bath 42° C., then 55° C. and sonication for OZ439

EC50 [1]: 19.5 ± 1.6 nM
dissolution in formulation [2]: completely dissolved
dissolution in DMSO ([3]; 160 mg/mL (341 mM) in DMSO, water bath 42° C., then 55° C. and sonication for OZ439, listed as 3′ regioisomer of OZ439): completely dissolved
SMILES: c1cc([C@@H]2CCC[C@]3(C2)OOC2(O3)C3CC4CC(C3)CC2C4)ccc1OCCN1CCOCC1 (stereo in doubt) [A5, 4-(2-(4-(dispiro[adamantane-2,3′-[1,2,4]trioxolane-5′,1″-cyclohexan]-3″-yl)phenoxy)ethyl)morpholine]
dissolution in DMSO [3, 11]: dissolved much more rapidly in DMSO than did OZ439

SMILES: CC(C)(N)CNC(=O)C[C@H]1CC[C@]2(CC1)OO[C@]1(O2)C2CC3CC(C2)CC1C3 [2a, arterolane, reference compound]
time to reduce early ring viability by 50% (t50) [4]: ~3 h
half-life [5]: 2 to 3 h
Solubility [6]: 433 µM (≈ 170 µg/mL)
time to reduce early ring viability by 50% (t50) [7]: ~1 h
T1/2 ([8]; half-life when incubated with mouse liver microsomes): 2.13 h
T1/2 (min) No NADPH ([8]; mouse liver microsomes, no NADPH): stable
CLint ([8]; mouse, microsomes): 5.4 μL/min/mg of protein
responders at 13.6 mg/kg/day ([9]; Table 2, tosylate salt, 13.6 mg/kg/day, once a day for four days, no parasitemia at 30 days): 100%
responders at 1 mg/kg/day ([9]; Table 3, free base, 1 mg/kg/day, four daily doses): 0%
responders at 4 mg/kg/day ([9]; Table 3, free base, 4 mg/kg/day, four daily doses): 80%
responders at 6 mg/kg/day ([9]; Table 3, free base, 6 mg/kg/day, four daily doses): 100%
responders at 10 mg/kg/day ([9]; Table 3, free base, 10 mg/kg/day, four daily doses): 100%
responders at 4 mg/kg/day ([9]; Table 4, 4 mg/kg/day, once a day for four days): 20%
responders at 6 mg/kg/day ([9]; Table 4, 6 mg/kg/day, once a day for four days): 80%

PET distribution [10]: accumulation in the small intestine
SMILES: O=C(NCCCNC(=O)C12CC3CC(C1)[C@]1(OO[C@]4(CC[C@@H](c5ccc(OCCN6CCOCC6)cc5)CC4)O1)C(C3)C2)c1ccc(F)cc1 [B9, N-(3-(4-fluorobenzamido)propyl)-4″-(4-(2-morpholinoethoxy)phenyl)dispiro[adamantane-2,3′-[1,2,4]trioxolane-5′,1″-cyclohexane]-5-carboxamide]

SMILES: c1cc([C@H]2CC[C@]3(CC2)OO[C@]2(O3)C3CC4CC(C3)CC2C4)ccc1OCCN1CCOCC1 [OZ439, artefenomel, reference compound]
EC50 [1]: 7.9 ± 0.2 nM
dissolution in formulation [2]: unsuccessful in getting the material to dissolve
dissolution in DMSO ([3]; 20 mg/mL (55 mM) in DMSO): did not readily dissolve
dissolution in DMSO [3, 11]: did not dissolve
